What was measured:
Mus musculus [1] = experiment: Incidence of disease (mouse type II collagen) was scored as the percentage of animals within each experimental group that exhibited joint or limb inflammation on day 37 at intraperitoneal dose of 0.38 mg/kg; assay type: functional
Mus musculus [2] = experiment: Incidence of disease (mouse type II collagen) was scored as the percentage of animals within each experimental group that exhibited joint or limb inflammation on day 23 at intraperitoneal dose of 1.5 mg/kg; assay type: functional
Mus musculus [3] = experiment: Tested for antiinflammatory activity on mouse type II collagen arthritis as Paw swelling of all animals in each group on day 30 at intraperitoneal dose of 0.75 mg/kg; assay type: functional
Mus musculus [4] = experiment: Incidence of disease (mouse type II collagen) was scored as the percentage of animals within each experimental group that exhibited joint or limb inflammation on day 23 at intraperitoneal dose of 3 mg/kg; assay type: functional
Mus musculus [5] = experiment: Tested for antiinflammatory activity on mouse type II collagen arthritis as Paw swelling of all animals in each group on day 23 at intraperitoneal dose of 0.38 mg/kg; assay type: functional
Mus musculus [6] = experiment: Tested for antiinflammatory activity on mouse type II collagen arthritis as Paw swelling of all animals in each group on day 30 at intraperitoneal dose of 6 mg/kg; assay type: functional
Mus musculus [7] = experiment: Tested for antiinflammatory activity on mouse type II collagen arthritis as Paw swelling of all animals in each group on day 44 at intraperitoneal dose of 0.75 mg/kg; assay type: functional
Mus musculus [8] = experiment: Tested for antiinflammatory activity on mouse type II collagen arthritis as Paw swelling of all animals in each group on day 30 at intraperitoneal dose of 1.5 mg/kg; assay type: functional
Mus musculus [9] = experiment: Incidence of disease (mouse type II collagen) was scored as the percentage of animals within each experimental group that exhibited joint or limb inflammation on day 37 at intraperitoneal dose of 3 mg/kg; assay type: functional
Mus musculus [10] = experiment: Incidence of disease (mouse type II collagen) was scored as the percentage of animals within each experimental group that exhibited joint or limb inflammation on day 30 at intraperitoneal dose of 0.38 mg/kg; assay type: functional
Mus musculus [11] = experiment: Tested for antiinflammatory activity on mouse type II collagen arthritis as Paw swelling of all animals in each group on day 37 at intraperitoneal dose of 0.38 mg/kg; assay type: functional
Mus musculus [12] = experiment: Tested for antiinflammatory activity on mouse type II collagen arthritis as Paw swelling of all animals in each group on day 44 at intraperitoneal dose of 6 mg/kg; assay type: functional
Mus musculus [13] = experiment: Incidence of disease (mouse type II collagen) was scored as the percentage of animals within each experimental group that exhibited joint or limb inflammation on day 30 at intraperitoneal dose of 0.75 mg/kg; assay type: functional
Mus musculus [14] = experiment: Incidence of disease (mouse type II collagen) was scored as the percentage of animals within each experimental group that exhibited joint or limb inflammation on day 44 at intraperitoneal dose of 0.75 mg/kg; assay type: functional
Mus musculus [15] = experiment: Tested for antiinflammatory activity on mouse type II collagen arthritis as Paw swelling of all animals in each group on day 44 at intraperitoneal dose of 1.5 mg/kg; assay type: functional
Mus musculus [16] = experiment: Incidence of disease (mouse type II collagen) was scored as the percentage of animals within each experimental group that exhibited joint or limb inflammation on day 23 at intraperitoneal dose of 0.75 mg/kg; assay type: functional
Mus musculus [17] = experiment: Incidence of disease (mouse type II collagen) was scored as the percentage of animals within each experimental group that exhibited joint or limb inflammation on day 23 at intraperitoneal dose of 6 mg/kg (1 animal died); assay type: functional
Mus musculus [18] = experiment: Tested for antiinflammatory activity on mouse type II collagen arthritis as Paw swelling of all animals in each group on day 37 at intraperitoneal dose of 0.75 mg/kg; assay type: functional
Mus musculus [19] = experiment: Tested for antiinflammatory activity on mouse type II collagen arthritis as Paw swelling of all animals in each group on day 23 at intraperitoneal dose of 6 mg/kg; assay type: functional
Mus musculus [20] = experiment: Tested for antiinflammatory activity on mouse type II collagen arthritis as Paw swelling of all animals in each group on day 23 at intraperitoneal dose of 0.75 mg/kg; assay type: functional
Mus musculus [21] = experiment: Incidence of disease (mouse type II collagen) was scored as the percentage of animals within each experimental group that exhibited joint or limb inflammation on day 23 at intraperitoneal dose of 0.38 mg/kg; assay type: functional
Mus musculus [22] = experiment: Tested for antiinflammatory activity on mouse type II collagen arthritis as Paw swelling of all animals in each group on day 44 at intraperitoneal dose of 0.38 mg/kg; assay type: functional
Mus musculus [23] = experiment: Incidence of disease (mouse type II collagen) was scored as the percentage of animals within each experimental group that exhibited joint or limb inflammation on day 37 at intraperitoneal dose of 1.5 mg/kg; assay type: functional
Mus musculus [24] = experiment: Incidence of disease (mouse type II collagen) was scored as the percentage of animals within each experimental group that exhibited joint or limb inflammation on day 44 at intraperitoneal dose of 3 mg/kg; assay type: functional
Mus musculus [25] = experiment: Incidence of disease (mouse type II collagen) was scored as the percentage of animals within each experimental group that exhibited joint or limb inflammation on day 30 at intraperitoneal dose of 1.5 mg/kg; assay type: functional
L1210 = experiment: Concentration required to inhibit the growth of L1210 cells.; assay type: functional, cell-based; details: Mus musculus
Mus musculus [26] = experiment: Tested for antiinflammatory activity on mouse type II collagen arthritis as Paw swelling of all animals in each group on day 37 at intraperitoneal dose of 3 mg/kg; assay type: functional
Mus musculus [27] = experiment: Incidence of disease (mouse type II collagen) was scored as the percentage of animals within each experimental group that exhibited joint or limb inflammation on day 44 at intraperitoneal dose of 1.5 mg/kg; assay type: functional
Mus musculus [28] = experiment: Incidence of disease (mouse type II collagen) was scored as the percentage of animals within each experimental group that exhibited joint or limb inflammation on day 44 at intraperitoneal dose of 0.38 mg/kg; assay type: functional
Mus musculus [29] = experiment: Tested for antiinflammatory activity on mouse type II collagen arthritis as Paw swelling of all animals in each group on day 37 at intraperitoneal dose of 1.5 mg/kg; assay type: functional
Mus musculus [30] = experiment: Incidence of disease (mouse type II collagen) was scored as the percentage of animals within each experimental group that exhibited joint or limb inflammation on day 30 at intraperitoneal dose of 6 mg/kg (1 animal died); assay type: functional
Mus musculus [31] = experiment: Incidence of disease (mouse type II collagen) was scored as the percentage of animals within each experimental group that exhibited joint or limb inflammation on day 30 at intraperitoneal dose of 3 mg/kg; assay type: functional
Mus musculus [32] = experiment: Incidence of disease (mouse type II collagen) was scored as the percentage of animals within each experimental group that exhibited joint or limb inflammation on day 37 at intraperitoneal dose of 6 mg/kg (1 animal died); assay type: functional
[33] = Concentration required to inhibit the growth of chang liver cells.; assay type: functional; details: Homo sapiens
Mus musculus [34] = experiment: Tested for antiinflammatory activity on mouse type II collagen arthritis as Paw swelling of all animals in each group on day 30 at intraperitoneal dose of 3 mg/kg; assay type: functional
Mus musculus [35] = experiment: Tested for antiinflammatory activity on mouse type II collagen arthritis as Paw swelling of all animals in each group on day 30 at intraperitoneal dose of 0.38 mg/kg; assay type: functional
Mus musculus [36] = experiment: Tested for antiinflammatory activity on mouse type II collagen arthritis as Paw swelling of all animals in each group on day 37 at intraperitoneal dose of 6 mg/kg; assay type: functional
Mus musculus [37] = experiment: Incidence of disease (mouse type II collagen) was scored as the percentage of animals within each experimental group that exhibited joint or limb inflammation on day 37 at intraperitoneal dose of 0.75 mg/kg; assay type: functional
Mus musculus [38] = experiment: Tested for antiinflammatory activity on mouse type II collagen arthritis as Paw swelling of all animals in each group on day 44 at intraperitoneal dose of 3 mg/kg; assay type: functional
Mus musculus [39] = experiment: Incidence of disease (mouse type II collagen) was scored as the percentage of animals within each experimental group that exhibited joint or limb inflammation on day 44 at intraperitoneal dose of 6 mg/kg (1 animal died); assay type: functional
Mus musculus [40] = experiment: Incidence of disease (mouse type II collagen) was scored as the percentage of animals within each experimental group that exhibited joint or limb inflammation on day 37 at intraperitoneal dose of 5 mg/kg; assay type: functional
Mus musculus [41] = experiment: Incidence of disease (mouse type II collagen) was scored as the percentage of animals within each experimental group that exhibited joint or limb inflammation on day 44 at intraperitoneal dose of 5 mg/kg; assay type: functional
Mus musculus [42] = experiment: Tested for antiinflammatory activity on mouse type II collagen arthritis as Paw swelling of all animals in each group on day 23 at intraperitoneal dose of 5 mg/kg; assay type: functional
Mus musculus [43] = experiment: Tested for antiinflammatory activity on mouse type II collagen arthritis as Paw swelling of all animals in each group on day 30 at intraperitoneal dose of 5 mg/kg; assay type: functional
Mus musculus [44] = experiment: Tested for antiinflammatory activity on mouse type II collagen arthritis as Paw swelling of all animals in each group on day 44 at intraperitoneal dose of 5 mg/kg; assay type: functional
Mus musculus [45] = experiment: Tested for antiinflammatory activity on mouse type II collagen arthritis as Paw swelling of all animals in each group on day 37 at intraperitoneal dose of 5 mg/kg; assay type: functional
Mus musculus [46] = experiment: Incidence of disease (mouse type II collagen) was scored as the percentage of animals within each experimental group that exhibited joint or limb inflammation on day 23 at intraperitoneal dose of 5 mg/kg; assay type: functional
Mus musculus [47] = experiment: Tested for antiinflammatory activity on mouse type II collagen arthritis as Paw swelling of all animals in each group on day 23 at intraperitoneal dose of 10 mg/kg; assay type: functional
Mus musculus [48] = experiment: Tested for antiinflammatory activity on mouse type II collagen arthritis as Paw swelling of all animals in each group on day 37 at intraperitoneal dose of 10 mg/kg; assay type: functional
Mus musculus [49] = experiment: Tested for antiinflammatory activity on mouse type II collagen arthritis as Paw swelling of all animals in each group on day 30 at intraperitoneal dose of 10 mg/kg; assay type: functional
Mus musculus [50] = experiment: Tested for antiinflammatory activity on mouse type II collagen arthritis as Paw swelling of all animals in each group on day 44 at intraperitoneal dose of 10 mg/kg; assay type: functional
Mus musculus [51] = experiment: Incidence of disease (mouse type II collagen) was scored as the percentage of animals within each experimental group that exhibited joint or limb inflammation on day 37 at intraperitoneal dose of 10 mg/kg; assay type: functional
Mus musculus [52] = experiment: Incidence of disease (mouse type II collagen) was scored as the percentage of animals within each experimental group that exhibited joint or limb inflammation on day 30 at intraperitoneal dose of 5 mg/kg; assay type: functional
Mus musculus [53] = experiment: Incidence of disease (mouse type II collagen) was scored as the percentage of animals within each experimental group that exhibited joint or limb inflammation on day 23 at intraperitoneal dose of 10 mg/kg; assay type: functional
Mus musculus [54] = experiment: Incidence of disease (mouse type II collagen) was scored as the percentage of animals within each experimental group that exhibited joint or limb inflammation on day 30 at intraperitoneal dose of 10 mg/kg; assay type: functional
Mus musculus [55] = experiment: Incidence of disease (mouse type II collagen) was scored as the percentage of animals within each experimental group that exhibited joint or limb inflammation on day 44 at intraperitoneal dose of 10 mg/kg; assay type: functional

C=CCN(Cc1cnc2nc(N)nc(N)c2c1C)c1ccc(C(=O)NC(CCC(=O)O)C(=O)O)cc1 (stereo unspecified)
Animals (Mus musculus [1]): 38%
Animals (Mus musculus [2]): 0%
Paw swelling (Mus musculus [3]): 2.22 mm
Animals (Mus musculus [4]): 0%
Paw swelling (Mus musculus [5]): 2.17 mm
Paw swelling (Mus musculus [6]): 2.1 mm
Paw swelling (Mus musculus [7]): 2.36 mm
Paw swelling (Mus musculus [8]): 2.24 mm
Animals (Mus musculus [9]): 0%
Animals (Mus musculus [10]): 0%
Paw swelling (Mus musculus [11]): 2.3 mm
Paw swelling (Mus musculus [12]): 2.13 mm
Animals (Mus musculus [13]): 25%
Animals (Mus musculus [14]): 50%
Paw swelling (Mus musculus [15]): 2.32 mm
Animals (Mus musculus [16]): 0%
Animals (Mus musculus [17]): 0%
Paw swelling (Mus musculus [18]): 2.33 mm
Paw swelling (Mus musculus [19]): 2.09 mm
Paw swelling (Mus musculus [20]): 2.17 mm
Animals (Mus musculus [21]): 0%
Paw swelling (Mus musculus [22]): 2.39 mm
Animals (Mus musculus [23]): 25%
Animals (Mus musculus [24]): 0%
Animals (Mus musculus [25]): 12%
IC50 (L1210): 3.4 nM
Paw swelling (Mus musculus [26]): 2.14 mm
Animals (Mus musculus [27]): 50%
Animals (Mus musculus [28]): 62%
Paw swelling (Mus musculus [29]): 2.26 mm
Animals (Mus musculus [30]): 0%
Animals (Mus musculus [31]): 0%
Animals (Mus musculus [32]): 0%
IC50 [33]: 30 nM
Paw swelling (Mus musculus [34]): 2.12 mm
Paw swelling (Mus musculus [35]): 2.17 mm
Paw swelling (Mus musculus [36]): 2.15 mm
Animals (Mus musculus [37]): 38%
Paw swelling (Mus musculus [38]): 2.16 mm
Animals (Mus musculus [39]): 0%

C#CCC(Cc1cnc2nc(N)nc(N)c2c1C)c1ccc(C(=O)NC(CCC(=O)O)C(=O)O)cc1 (stereo unspecified)
Animals (Mus musculus [40]): 62%
Animals (Mus musculus [41]): 88%
Paw swelling (Mus musculus [42]): 2.18 mm
Paw swelling (Mus musculus [43]): 2.17 mm
Paw swelling (Mus musculus [44]): 2.64 mm
Paw swelling (Mus musculus [45]): 2.45 mm
Animals (Mus musculus [46]): 12%
Paw swelling (Mus musculus [47]): 2.19 mm
Paw swelling (Mus musculus [48]): 2.65 mm
Paw swelling (Mus musculus [49]): 2.37 mm
Paw swelling (Mus musculus [50]): 2.7 mm
Animals (Mus musculus [51]): 71%
Animals (Mus musculus [52]): 12%
Animals (Mus musculus [53]): 14%
Animals (Mus musculus [54]): 57%
Animals (Mus musculus [55]): 71%
